PubChem BioAssay (NCI)
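Method: 48-hour compound exposure of cells in 96-well plates, five concentrations, linear interpolation of endpoints. At the GI50, growth is halved. TGI: concentration producing complete growth inhibition.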

Columns and labels:
Assay in all cases: DTP human tumour cell line panel, 48 h
K-562 leukemia = tested on: K-562 leukemia
HOP-62 NSCLC = tested on: HOP-62 NSCLC
SW-620 colon = tested on: SW-620 colon
MOLT-4 leukemia = tested on: MOLT-4 leukemia
SK-MEL-5 melanoma = tested on: SK-MEL-5 melanoma
UACC-62 melanoma = tested on: UACC-62 melanoma
HOP-92 NSCLC = tested on: HOP-92 NSCLC
SR leukemia = tested on: SR leukemia
786-0 renal = tested on: 786-0 renal
SK-MEL-2 melanoma = tested on: SK-MEL-2 melanoma
SNB-75 CNS = tested on: SNB-75 CNS
HL-60(TB) leukemia = tested on: HL-60(TB) leukemia
SNB-19 CNS = tested on: SNB-19 CNS
SF-539 CNS = tested on: SF-539 CNS
RXF 393 renal = tested on: RXF 393 renal
BT-549 breast = tested on: BT-549 breast
UO-31 renal = tested on: UO-31 renal
CCRF-CEM leukemia = tested on: CCRF-CEM leukemia
SN12C renal = tested on: SN12C renal
PC-3 prostate = tested on: PC-3 prostate
UACC-257 melanoma = tested on: UACC-257 melanoma
A498 renal = tested on: A498 renal
A549 NSCLC = tested on: A549 NSCLC
ACHN renal = tested on: ACHN renal
IGROV1 ovarian = tested on: IGROV1 ovarian
NCI-H522 lung = tested on: NCI-H522 lung
COLO 205 colon = tested on: COLO 205 colon
KM12 colon = tested on: KM12 colon
MALME-3M melanoma = tested on: MALME-3M melanoma
SK-MEL-28 melanoma = tested on: SK-MEL-28 melanoma
HCC-2998 colon = tested on: HCC-2998 colon
T-47D breast = tested on: T-47D breast
HS 578T breast = tested on: HS 578T breast
HT29 colon = tested on: HT29 colon
TK-10 renal = tested on: TK-10 renal
OVCAR-8 ovarian = tested on: OVCAR-8 ovarian
MDA-MB-231 breast = tested on: MDA-MB-231 breast
EKVX NSCLC = tested on: EKVX NSCLC
MCF7 breast = tested on: MCF7 breast
RPMI-8226 leukemia = tested on: RPMI-8226 leukemia
DU-145 prostate = tested on: DU-145 prostate
M14 melanoma = tested on: M14 melanoma
SF-295 CNS = tested on: SF-295 CNS
OVCAR-3 ovarian = tested on: OVCAR-3 ovarian
OVCAR-4 ovarian = tested on: OVCAR-4 ovarian
LOX IMVI melanoma = tested on: LOX IMVI melanoma
CAKI-1 renal = tested on: CAKI-1 renal
NCI/ADR-RES ovarian = tested on: NCI/ADR-RES ovarian
OVCAR-5 ovarian = tested on: OVCAR-5 ovarian
SF-268 CNS = tested on: SF-268 CNS
NCI-H226 lung = tested on: NCI-H226 lung
U251 CNS = tested on: U251 CNS
HCT-15 colon = tested on: HCT-15 colon
NCI-H460 lung = tested on: NCI-H460 lung
HCT-116 colon = tested on: HCT-116 colon
SK-OV-3 ovarian = tested on: SK-OV-3 ovarian

COc1ccc(-c2nc(C(Cl)Cl)nc3cc(-c4ccccc4)nn23)cc1
GI50 (K-562 leukemia): 3060 nM | TGI (K-562 leukemia): > 100000 nM | GI50 (HOP-62 NSCLC): 2660 nM | TGI (HOP-62 NSCLC): > 100000 nM | GI50 (SW-620 colon): 1960 nM | TGI (SW-620 colon): > 100000 nM | GI50 (MOLT-4 leukemia): 2750 nM | TGI (MOLT-4 leukemia): > 100000 nM | GI50 (SK-MEL-5 melanoma): > 100000 nM | TGI (SK-MEL-5 melanoma): > 100000 nM | GI50 (UACC-62 melanoma): > 100000 nM | TGI (UACC-62 melanoma): > 100000 nM | GI50 (HOP-92 NSCLC): 3090 nM | TGI (HOP-92 NSCLC): > 100000 nM | GI50 (SR leukemia): 1870 nM | TGI (SR leukemia): > 100000 nM | GI50 (786-0 renal): 10700 nM | TGI (786-0 renal): 26900 nM | GI50 (SK-MEL-2 melanoma): > 100000 nM | TGI (SK-MEL-2 melanoma): > 100000 nM | GI50 (SNB-75 CNS): > 100000 nM | TGI (SNB-75 CNS): > 100000 nM | GI50 (HL-60(TB) leukemia): 1600 nM | TGI (HL-60(TB) leukemia): > 100000 nM | GI50 (SNB-19 CNS): 2810 nM | TGI (SNB-19 CNS): > 100000 nM | GI50 (SF-539 CNS): 72800 nM | TGI (SF-539 CNS): > 100000 nM | GI50 (RXF 393 renal): 1630 nM | TGI (RXF 393 renal): 3140 nM | GI50 (BT-549 breast): 1920 nM | TGI (BT-549 breast): 5780 nM | GI50 (UO-31 renal): > 100000 nM | TGI (UO-31 renal): > 100000 nM

CCOC(=O)Nc1cccc(-n2cnc3cc(-c4ccc(O)cc4)ccc32)c1
GI50 (CCRF-CEM leukemia): 144 nM | TGI (CCRF-CEM leukemia): > 100000 nM | GI50 (SN12C renal): 498 nM | TGI (SN12C renal): > 55000 nM | GI50 (PC-3 prostate): 145 nM | TGI (PC-3 prostate): > 100000 nM | GI50 (K-562 leukemia): 42.6 nM | TGI (K-562 leukemia): > 100000 nM | GI50 (UACC-257 melanoma): 1270 nM | TGI (UACC-257 melanoma): > 42500 nM | GI50 (A498 renal): 697 nM | TGI (A498 renal): 4530 nM | GI50 (A549 NSCLC): 380 nM | TGI (A549 NSCLC): > 45600 nM | GI50 (HOP-62 NSCLC): 770 nM | TGI (HOP-62 NSCLC): > 59800 nM | GI50 (SW-620 colon): 64.7 nM | TGI (SW-620 colon): > 47400 nM | GI50 (ACHN renal): 260 nM | TGI (ACHN renal): > 67400 nM | GI50 (MOLT-4 leukemia): 114 nM | TGI (MOLT-4 leukemia): 37200 nM | GI50 (IGROV1 ovarian): 561 nM | TGI (IGROV1 ovarian): > 46500 nM | GI50 (NCI-H522 lung): 56.1 nM | TGI (NCI-H522 lung): 333 nM | GI50 (COLO 205 colon): 232 nM | TGI (COLO 205 colon): > 34600 nM | GI50 (KM12 colon): 283 nM | TGI (KM12 colon): 6020 nM | GI50 (MALME-3M melanoma): 774 nM | TGI (MALME-3M melanoma): > 48800 nM | GI50 (SK-MEL-28 melanoma): 1620 nM | TGI (SK-MEL-28 melanoma): > 45900 nM | GI50 (HCC-2998 colon): 310 nM | TGI (HCC-2998 colon): > 66700 nM | GI50 (SK-MEL-5 melanoma): 167 nM | TGI (SK-MEL-5 melanoma): 2370 nM | GI50 (T-47D breast): 940 nM | TGI (T-47D breast): > 29300 nM | GI50 (HS 578T breast): 317 nM | TGI (HS 578T breast): > 30700 nM | GI50 (UACC-62 melanoma): 367 nM | TGI (UACC-62 melanoma): > 36900 nM | GI50 (HOP-92 NSCLC): 1450 nM | TGI (HOP-92 NSCLC): 13600 nM | GI50 (SR leukemia): 32 nM | TGI (SR leukemia): > 45200 nM | GI50 (HT29 colon): 143 nM | TGI (HT29 colon): 1100 nM | GI50 (TK-10 renal): 1470 nM | TGI (TK-10 renal): > 64800 nM | GI50 (OVCAR-8 ovarian): 302 nM | TGI (OVCAR-8 ovarian): > 33700 nM | GI50 (786-0 renal): 719 nM | TGI (786-0 renal): > 54800 nM | GI50 (MDA-MB-231 breast): 267 nM | TGI (MDA-MB-231 breast): > 67400 nM | GI50 (EKVX NSCLC): 885 nM | TGI (EKVX NSCLC): > 47800 nM | GI50 (SK-MEL-2 melanoma): 204 nM | TGI (SK-MEL-2 melanoma): > 43800 nM | GI50 (SNB-75 CNS): 48.6 nM | TGI (SNB-75 CNS): > 41100 nM | GI50 (MCF7 breast): 141 nM | TGI (MCF7 breast): > 35700 nM | GI50 (HL-60(TB) leukemia): 36 nM | TGI (HL-60(TB) leukemia): 1210 nM | GI50 (RPMI-8226 leukemia): 342 nM | TGI (RPMI-8226 leukemia): 3780 nM | GI50 (SNB-19 CNS): 313 nM | TGI (SNB-19 CNS): > 100000 nM | GI50 (DU-145 prostate): 391 nM | TGI (DU-145 prostate): > 45300 nM | GI50 (SF-539 CNS): 182 nM | TGI (SF-539 CNS): 15000 nM | GI50 (M14 melanoma): 63.4 nM | TGI (M14 melanoma): > 37800 nM | GI50 (SF-295 CNS): 102 nM | TGI (SF-295 CNS): > 100000 nM | GI50 (OVCAR-3 ovarian): 56.2 nM | TGI (OVCAR-3 ovarian): 2170 nM | GI50 (OVCAR-4 ovarian): 1580 nM | TGI (OVCAR-4 ovarian): > 55800 nM | GI50 (LOX IMVI melanoma): 245 nM | TGI (LOX IMVI melanoma): > 39900 nM | GI50 (RXF 393 renal): 157 nM | TGI (RXF 393 renal): 681 nM | GI50 (BT-549 breast): 132 nM | TGI (BT-549 breast): 4400 nM | GI50 (CAKI-1 renal): 343 nM | TGI (CAKI-1 renal): > 76800 nM | GI50 (UO-31 renal): 388 nM | TGI (UO-31 renal): > 36900 nM | GI50 (NCI/ADR-RES ovarian): 84.9 nM | TGI (NCI/ADR-RES ovarian): 25400 nM | GI50 (OVCAR-5 ovarian): 600 nM | TGI (OVCAR-5 ovarian): > 75100 nM | GI50 (SF-268 CNS): 2190 nM | TGI (SF-268 CNS): > 71600 nM | GI50 (NCI-H226 lung): 1260 nM | TGI (NCI-H226 lung): 6770 nM | GI50 (U251 CNS): 158 nM | TGI (U251 CNS): > 47100 nM | GI50 (HCT-15 colon): 44.7 nM | TGI (HCT-15 colon): > 37800 nM | GI50 (NCI-H460 lung): 192 nM | TGI (NCI-H460 lung): > 34200 nM | GI50 (HCT-116 colon): 141 nM | TGI (HCT-116 colon): > 46200 nM | GI50 (SK-OV-3 ovarian): 618 nM | TGI (SK-OV-3 ovarian): > 72000 nM
